Blank lines part the entries; values can stand above or below the molecule they belong to.
Columns and labels:
hippocampal slices = experiment: Spontaneous interictal-like bursts in hippocampal slices after additions to the bathing medium; type: cell-based, rat; conditions: 4 slices
Protocol: (§1) Sprague-Dawley rats (male and female; 25 to 35 days old) were prepared as described in Aghajanian, A. K. and Rasmussen, K., Synapse 31:331, 1989; and Buckmaster, P. S., Strowbridge, B. W., Schwartzdroin, P. A., J. Neurophysiol. 70:1281, 1993. In most hippocampal slice experiments, simultaneous extracellular field electrode recordings were obtained from CA1 and CA3 areas. For stimulation-evoked afterdischarge (13 slices, 8 animals), the concentration of Mg^2+ in the bathing medium was reduced to 0.9 mM. A bipolar tungsten stimulating electrode was placed on the Schaffer collaterals to evoke synaptically driven field responses in CA1; stimuli consisted to 100 to 300-μs-duration pulses at an intensity of four times population-spike threshold. After discharges were evoked by a 2-s train of such stimuli delivered at 60 Hz. […] In all treatments, perfusion with furosemide-containing medium was begun after a consistent level of bursting had been established.

[1] = test system: hippocampal tissue slice (CA1, Schaffer collateral stimulation); experiment: Stimulation-evoked afterdischarge in acute hippocampal slice: extracellular field recording and imaging of intrinsic optical signals; type: cell-based, rat
Protocol: as §1
For imaging of intrinsic optical signals, the tissue was illuminated with a beam of white light (tungsten filament light and lens system; Dedotec USA, Lodi, N.J.) directed through the microscope condenser. The light was controlled and regulated (power supply: Lambda Electronics, Melville, N.Y.) to minimize fluctuations and filtered (695 nm long-pass) so that the slice was transilluminated with long wavelengths (red). Image frames were acquired with a charge-coupled device camera (Dage-MTI) at 30 Hz and were digitized at 8 bits with a spatial resolution of 512 by 480 pixels by means of an Imaging Technology Series 151 imaging system; gains and offsets of the camera-control box and the analog-to-digital board were adjusted to optimize the sensitivity of the system. Imaging hardware was controlled by a 486-PC-compatible computer running software written by D. Hochman and developed with commercially available software tools (Microsoft's C/C++ Compiler and Imaging Technology's ITEX library). To increase signal-to-noise ratio, an averaged image was composed from 16 individual image-frames, integrated over 0.5 s and averaged together. An experimental series typically involved the continuous acquisition of a series of averaged images over a several minute time period; at least 10 of these averaged images were acquired as control images before stimulation. Pseudocolored images were calculated by subtracting the first control image from subsequently acquired images and assigned a color lookup table to the pixel values. For these images, usually a linear low-pass filter was used to remove high-frequency noise and a linear-histogram stretch was used to map the pixel values over the dynamic range of the system. All operations on these images were linear so that quantitative information was preserved.

[2] = test system: brain tumor and normal tissue; experiment: Optical imaging of brain tumor through the intact cranium after intravenous dye injection
[3] = 20 minutes of perfusion with medium containing 2.5 mM furosemide
[4] = following treatment with furosemide (FIG. 3E)

Compound: Nc1ccncc1 [4-AP]
spontaneous interictal-like bursts, average (hippocampal slices; 200 to 300 μM 4-AP in bathing medium, 2 animals): 33 bursts/min

Compound: CN1CCc2cc3c(cc2[C@H]1[C@@H]1OC(=O)c2c1ccc1c2OCO1)OCO3 [bicuculine]
spontaneous interictal-like bursts, average (hippocampal slices; 50 to 100 bicuculine in bathing medium, 3 animals): 14 bursts/min

Compound: NS(=O)(=O)c1cc(C(=O)O)c(NCc2ccco2)cc1Cl [furosemide]
field response to the test pulse [1, 3]: hyperexcitable field response (multiple population spikes)
stimulation-evoked optical changes [1, 3]: blocked
electrical afterdischarge activity ([1]; 20 minutes of perfusion with medium containing 2.5 mM furosemide, 2 s stimulation at 60 Hz): blocked
response pattern after washout ([1]; following 45 minutes of perfusion with normal bathing medium): restoration of the initial response pattern
epileptiform activity during electrical stimulation [1, 4]: blocks
intrinsic optical signal during electrical stimulation [1, 4]: blocks

dye in normal tissue ([2]; one minute after dye injection): cleared the dye
dye in tumor region ([2]; one minute after dye injection): still retained
Compound: CC1(C)C(/C=C/C=C/C=C/C=C2\N(CCCCS(=O)(=O)O)c3ccc4ccccc4c3C2(C)C)=[N+](CCCCS(=O)(=O)[O-])c2ccc3ccccc3c21 [indocyanine green]
dye distribution in normal and tumor tissue ([2]; five seconds after dye injection): profuse through both normal and tumor tissue
